Data published in ChEMBL document CHEMBL1201862, “PubChem BioAssay data set” (2004).
Calls of active or inactive are those of the source.

Tested on: not listed separately
Assay: Luminescence Cell-Based Dose Confirmation HTS to Identify Activators of 5'UTR Stem-Loop Driven Alpha-Synuclein mRNA Translation in H4 Neuroglioblastoma Cells. [Related pubchem assays: 1829 (Project Summary), 1814 (Primary HTS)]
Type: functional
Settings: not given
For `O=C(Nc1ccccc1N1CCCC1)c1cc2ccccc2o1`, the EC50 was 6.1 µM (active).

Target: T1, Polyadenylate-binding protein 1 (Homo sapiens, UniProt P11940)
T1 sequence (P11940 whole entry): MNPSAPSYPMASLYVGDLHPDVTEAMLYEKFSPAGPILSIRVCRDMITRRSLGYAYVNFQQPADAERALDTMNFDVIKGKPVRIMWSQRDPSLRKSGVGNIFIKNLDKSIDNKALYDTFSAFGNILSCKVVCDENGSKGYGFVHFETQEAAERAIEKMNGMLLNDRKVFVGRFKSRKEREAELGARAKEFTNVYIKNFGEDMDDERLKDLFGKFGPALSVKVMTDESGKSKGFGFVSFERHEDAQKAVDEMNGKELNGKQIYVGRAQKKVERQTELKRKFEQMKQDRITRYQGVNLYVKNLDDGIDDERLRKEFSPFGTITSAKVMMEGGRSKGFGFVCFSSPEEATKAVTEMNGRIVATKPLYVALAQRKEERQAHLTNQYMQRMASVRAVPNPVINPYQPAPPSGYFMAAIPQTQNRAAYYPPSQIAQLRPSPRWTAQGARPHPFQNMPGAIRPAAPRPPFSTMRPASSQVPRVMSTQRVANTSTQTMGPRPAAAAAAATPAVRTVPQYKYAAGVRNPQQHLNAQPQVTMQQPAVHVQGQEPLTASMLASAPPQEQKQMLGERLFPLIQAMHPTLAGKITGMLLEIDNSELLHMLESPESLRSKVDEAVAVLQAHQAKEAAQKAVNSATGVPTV
Assay: PABP1 MLLE–PAM2 binding inhibitor potency, dose response, biochemical, fluorescence polarization, FITC-PAM2 peptide (AID 602259)
Type: functional
Settings: read-out: IC50_Mean
With `CC1(C(=O)NC(=S)N(CCC#N)c2ccccc2)CC1(Cl)Cl` (stereo unspecified) the IC50 was > 66 µM (inactive).
In the case of `O=C(NC1CCCCCC1)C(=S)N1CCOCC1`, the IC50 is reported as > 66 µM (inactive).
In the case of `CCOc1ccc2[nH]c(SCC(=O)OC)c([N+](=O)[O-])c2c1`, the IC50 is reported as 41 µM (inactive).
With `COc1ccc(OC)c(S(=O)(=O)N2CCCCC2C(=O)N2CCN(c3ccccn3)CC2)c1` (stereo unspecified) the IC50 was > 66 µM (inactive).
In the case of `CC(=O)Nc1ccc(NC(=S)NC(=O)c2ccc([N+](=O)[O-])cc2)cc1`, the IC50 is reported as > 66 µM (inactive).
In the case of `Cc1cc(C)nc(SCNC(=O)c2ccc(Cl)cc2)n1`, the IC50 is reported as > 66 µM (inactive).
For `O=C(Nc1ccccc1N1CCCC1)c1cc2ccccc2o1`, the IC50 was > 66 µM (inactive).

Target: T1, Polyadenylate-binding protein 1
Assay: PABP1 MLLE–PAM2 interaction inhibitors, dose response, miRNA deadenylation inhibitor project, biochemical, fluorescence polarization, Cy5-PAM2 peptide, secondary (AID 602260)
Type: functional
Settings: read-out: IC50_Mean
In the case of `CC1(C(=O)NC(=S)N(CCC#N)c2ccccc2)CC1(Cl)Cl` (stereo unspecified), the IC50 is reported as > 66 µM (inactive).
For `O=C(NC1CCCCCC1)C(=S)N1CCOCC1`, the IC50 was > 66 µM (inactive).
For `CCOc1ccc2[nH]c(SCC(=O)OC)c([N+](=O)[O-])c2c1`, the IC50 was > 66 µM (inactive).
For `COc1ccc(OC)c(S(=O)(=O)N2CCCCC2C(=O)N2CCN(c3ccccn3)CC2)c1` (stereo unspecified), the IC50 was > 66 µM (inactive).
In the case of `CC(=O)Nc1ccc(NC(=S)NC(=O)c2ccc([N+](=O)[O-])cc2)cc1`, the IC50 is reported as > 66 µM (inactive).
For `Cc1cc(C)nc(SCNC(=O)c2ccc(Cl)cc2)n1`, the IC50 was > 66 µM (inactive).
With `O=C(Nc1ccccc1N1CCCC1)c1cc2ccccc2o1` the IC50 was > 66 µM (inactive).

Tested on: H4
Assay: Luminescence Cell-Based Dose Response HTS to Identify Activators of 5'UTR Stem-Loop Driven Prion Protein mRNA Translation in H4 Neuroglioblastoma Cells. [Related pubchem assays: 1829 (Project Summary), 1814 (Primary HTS)]
Type: functional
Settings: Homo sapiens
With `O=C(Nc1ccccc1N1CCCC1)c1cc2ccccc2o1` the EC50 was 56.5 µM (active).

Target: T2, Ubiquitin-conjugating enzyme E2 N (Homo sapiens, UniProt P61088);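 note: Dose-response confirmation in a TR-FRET assay detecting UBC13-driven polyubiquitin chain formation, inhibition measured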
T2 sequence (P61088 whole entry): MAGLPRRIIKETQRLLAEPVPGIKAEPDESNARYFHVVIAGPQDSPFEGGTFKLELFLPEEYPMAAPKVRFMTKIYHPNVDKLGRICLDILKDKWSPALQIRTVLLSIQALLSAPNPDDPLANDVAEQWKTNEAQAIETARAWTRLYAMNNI
Type: functional
Settings: not given
In the case of `COc1ccc(CCNC(=O)Cn2c(=O)n(-c3ccc(C)c(F)c3)c(=O)c3sccc32)cc1OC`, the IC50 is reported as > 20 µM (inactive).
With `COc1ccc(C(=O)Nc2ccc3oc(-c4cccc(F)c4)nc3c2)cc1OC` the IC50 was > 20 µM (inactive).
In the case of `CCC[C@@H](CN1CCC[C@H]1CN1C(N)=NC[C@@H]1Cc1ccccc1)N1C[C@@H](Cc2ccccc2)N(CCc2ccc(Cl)c(Cl)c2)C1=N`, the IC50 is reported as > 20 µM (inactive).
In the case of `CCN(CC)CCNC(=O)c1cc2c(=O)n(CC)c3ccccc3c2s1`, the IC50 is reported as > 20 µM (inactive).
With `CCOC(=O)C1=C(c2ccccc2)O/C(=C(/C(=O)OC)C(F)(F)F)S1` the IC50 was > 20 µM (inactive).
In the case of `CCN(CC)CCNC(=O)c1cc2c(s1)-c1ccccc1SC2`, the IC50 is reported as > 20 µM (inactive).

Tested on: not listed separately
Assay: cytotoxicity toward NIH3T3 fibroblasts, dose response, counter-screen, cell-based, ATP luminescence, mouse fibroblasts (AID 2010);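 note: cells exposed to compound for about 90 hours before reading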
Type: functional
Settings: not given
For `CCN(CC)CCNC(=O)c1cc2c(s1)-c1ccccc1SC2`, the EC50 was 7.38 µM (active).

Tested on: not listed separately
Assay: inhibitors of intracellular T. cruzi replication, confirmation, NIH3T3 host cells, beta-gal luminescence (AID 2044);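 note: intracellular parasites grown in NIH/3T3 mouse fibroblasts as host cells; luminescent beta-galactosidase reporter signal from transgenic T. cruzi replicating inside host cells; inhibitors lower the luminescence signal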
Type: functional, cell-based
Settings: not given
With `CCN(CC)CCNC(=O)c1cc2c(s1)-c1ccccc1SC2` the EC50 was 2.27 µM (active).

Target: T3, Fatty acid synthase (Homo sapiens, UniProt P49327)
T3 sequence (P49327 whole entry, the tested form may be a part): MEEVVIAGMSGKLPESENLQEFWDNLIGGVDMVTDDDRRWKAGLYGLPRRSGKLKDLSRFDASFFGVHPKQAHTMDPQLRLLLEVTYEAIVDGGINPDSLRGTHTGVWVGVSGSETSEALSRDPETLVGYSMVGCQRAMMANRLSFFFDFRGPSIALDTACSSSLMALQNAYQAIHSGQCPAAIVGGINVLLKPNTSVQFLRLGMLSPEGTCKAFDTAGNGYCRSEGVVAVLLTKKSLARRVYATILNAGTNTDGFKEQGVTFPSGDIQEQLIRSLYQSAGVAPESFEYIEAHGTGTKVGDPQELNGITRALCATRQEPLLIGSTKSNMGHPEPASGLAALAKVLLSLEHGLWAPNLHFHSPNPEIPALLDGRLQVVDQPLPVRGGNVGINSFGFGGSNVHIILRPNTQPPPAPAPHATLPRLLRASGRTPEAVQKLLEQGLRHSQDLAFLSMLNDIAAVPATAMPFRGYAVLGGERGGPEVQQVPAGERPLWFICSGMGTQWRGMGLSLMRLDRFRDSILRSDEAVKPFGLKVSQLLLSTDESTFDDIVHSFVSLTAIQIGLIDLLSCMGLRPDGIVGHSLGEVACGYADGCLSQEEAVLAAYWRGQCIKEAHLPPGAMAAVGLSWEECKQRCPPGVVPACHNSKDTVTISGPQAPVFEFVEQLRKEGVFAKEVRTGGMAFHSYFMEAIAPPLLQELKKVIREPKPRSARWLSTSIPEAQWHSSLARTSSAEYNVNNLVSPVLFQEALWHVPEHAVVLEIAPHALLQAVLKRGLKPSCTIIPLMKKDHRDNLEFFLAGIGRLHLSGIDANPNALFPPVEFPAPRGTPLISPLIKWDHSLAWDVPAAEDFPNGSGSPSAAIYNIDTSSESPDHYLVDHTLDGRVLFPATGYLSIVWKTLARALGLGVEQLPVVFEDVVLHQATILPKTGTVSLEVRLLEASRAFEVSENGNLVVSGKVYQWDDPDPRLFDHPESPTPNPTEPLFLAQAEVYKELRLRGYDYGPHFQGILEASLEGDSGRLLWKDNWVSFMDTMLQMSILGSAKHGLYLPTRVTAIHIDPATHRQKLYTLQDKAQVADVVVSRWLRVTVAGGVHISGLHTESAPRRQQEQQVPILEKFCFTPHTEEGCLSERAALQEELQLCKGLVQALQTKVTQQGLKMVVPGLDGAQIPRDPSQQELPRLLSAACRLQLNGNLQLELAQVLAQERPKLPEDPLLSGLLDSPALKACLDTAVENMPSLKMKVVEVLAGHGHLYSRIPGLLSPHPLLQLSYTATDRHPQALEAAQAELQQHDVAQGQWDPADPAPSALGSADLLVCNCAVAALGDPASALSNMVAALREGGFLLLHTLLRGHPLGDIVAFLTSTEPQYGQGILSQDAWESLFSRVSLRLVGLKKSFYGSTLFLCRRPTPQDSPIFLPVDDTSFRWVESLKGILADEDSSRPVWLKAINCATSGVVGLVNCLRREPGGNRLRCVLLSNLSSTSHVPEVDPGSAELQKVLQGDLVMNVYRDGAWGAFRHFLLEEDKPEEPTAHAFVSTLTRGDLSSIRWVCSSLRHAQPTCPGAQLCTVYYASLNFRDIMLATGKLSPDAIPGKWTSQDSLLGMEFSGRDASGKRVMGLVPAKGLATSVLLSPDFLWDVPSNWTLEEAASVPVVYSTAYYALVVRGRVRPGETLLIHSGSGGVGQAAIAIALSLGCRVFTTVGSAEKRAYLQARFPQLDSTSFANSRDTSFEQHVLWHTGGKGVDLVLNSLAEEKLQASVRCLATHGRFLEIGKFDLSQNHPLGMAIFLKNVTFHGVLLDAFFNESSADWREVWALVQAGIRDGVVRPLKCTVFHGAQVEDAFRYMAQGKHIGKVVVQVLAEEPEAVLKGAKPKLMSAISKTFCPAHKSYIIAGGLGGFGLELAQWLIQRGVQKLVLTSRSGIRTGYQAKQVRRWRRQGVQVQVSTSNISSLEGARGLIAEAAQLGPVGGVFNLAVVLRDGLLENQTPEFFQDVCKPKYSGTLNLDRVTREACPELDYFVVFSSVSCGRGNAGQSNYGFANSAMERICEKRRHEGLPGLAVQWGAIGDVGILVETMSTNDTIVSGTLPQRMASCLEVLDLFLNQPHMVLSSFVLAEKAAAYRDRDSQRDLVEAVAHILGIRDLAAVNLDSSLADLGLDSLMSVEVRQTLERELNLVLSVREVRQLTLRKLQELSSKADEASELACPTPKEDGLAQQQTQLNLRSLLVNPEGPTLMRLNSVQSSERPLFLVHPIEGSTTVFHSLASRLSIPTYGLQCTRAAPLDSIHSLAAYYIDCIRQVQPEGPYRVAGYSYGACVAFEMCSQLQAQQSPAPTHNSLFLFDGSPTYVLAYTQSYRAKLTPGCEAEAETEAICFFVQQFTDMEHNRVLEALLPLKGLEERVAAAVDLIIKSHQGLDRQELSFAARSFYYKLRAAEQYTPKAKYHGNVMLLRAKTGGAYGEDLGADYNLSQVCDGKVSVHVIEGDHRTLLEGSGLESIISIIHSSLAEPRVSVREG
Assay: FAS thioesterase domain inhibitors, dose response, biochemical, endpoint fluorescence intensity, uHTS hits (AID 624327);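 note: fluorescence from hydrolysis of an O-methyl fluorescein acyl ester substrate by the enzyme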
Type: functional
Settings: not given
In the case of `Cc1nn(C)cc1C(C(=O)NC1CCCCC1)N(C(=O)Cc1cccs1)c1ccc(C(C)C)cc1` (stereo unspecified), the IC50 is reported as 8.86 µM (active).
For `Cc1cccc(NC(=O)CNC(=O)COC(=O)c2ccc(C(C)(C)C)cc2)c1C`, the IC50 was 14.6 µM (active).
For `COc1ccc(-c2nnc(SCC(=O)Nc3ncc(C(F)(F)F)cc3Cl)n2CC(C)C)cc1`, the IC50 was 2.11 µM (active).
In the case of `O=C(NC1CCCCC1)N(c1ccccc1)c1nnc(-c2cccc([N+](=O)[O-])c2)s1`, the IC50 is reported as 6.12 µM (active).
In the case of `O=C(Cc1cccc(C(F)(F)F)c1)OCN1C(=O)c2ccccc2C1=O`, the IC50 is reported as 16.8 µM (active).
With `NC(=NOC(=O)CCC1CCCCC1)c1cccc([N+](=O)[O-])c1` the IC50 was 6.09 µM (active).
For `O=C(CSc1ncnc2c1cnn2-c1ccccc1)NC1CCS(=O)(=O)C1` (stereo unspecified), the IC50 was 7.65 µM (active).
In the case of `COC(=O)c1cc(C(=O)OCC(=O)c2ccc3c(c2)NC(=O)CO3)cc([N+](=O)[O-])c1`, the IC50 is reported as 13.6 µM (active).

Tested on: not listed separately
Assay: Luminescence Cell-Based Dose Response HTS to Identify Activators of Luciferase Translation or Activity in H4 […] Cells. [Related pubchem assays: 1829 (Project Summary), 1814 (Primary HTS)]
Type: functional
Settings: not given
With `O=C(Nc1ccccc1N1CCCC1)c1cc2ccccc2o1` the EC50 was 5.42 µM (active).

Target: T3, Fatty acid synthase
Assay: FAS thioesterase domain inhibitors, dose response, biochemical, kinetic fluorescence intensity (AID 624326);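 note: rate of fluorescence rise from hydrolysis of a fluorogenic O-methyl fluorescein ester substrate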
Type: functional
Settings: not given
With `Cc1nn(C)cc1C(C(=O)NC1CCCCC1)N(C(=O)Cc1cccs1)c1ccc(C(C)C)cc1` (stereo unspecified) the IC50 was 4.06 µM (active).
For `Cc1cccc(NC(=O)CNC(=O)COC(=O)c2ccc(C(C)(C)C)cc2)c1C`, the IC50 was 20.7 µM (inactive).
With `COc1ccc(-c2nnc(SCC(=O)Nc3ncc(C(F)(F)F)cc3Cl)n2CC(C)C)cc1` the IC50 was 3.55 µM (active).
With `O=C(NC1CCCCC1)N(c1ccccc1)c1nnc(-c2cccc([N+](=O)[O-])c2)s1` the IC50 was 7.21 µM (active).
With `O=C(Cc1cccc(C(F)(F)F)c1)OCN1C(=O)c2ccccc2C1=O` the IC50 was 11.6 µM (active).
For `NC(=NOC(=O)CCC1CCCCC1)c1cccc([N+](=O)[O-])c1`, the IC50 was 6 µM (active).
With `O=C(CSc1ncnc2c1cnn2-c1ccccc1)NC1CCS(=O)(=O)C1` (stereo unspecified) the IC50 was 9.44 µM (active).
For `COC(=O)c1cc(C(=O)OCC(=O)c2ccc3c(c2)NC(=O)CO3)cc([N+](=O)[O-])c1`, the IC50 was 30.9 µM (inactive).
